# Results taken from ChEMBL document CHEMBL1201862, “PubChem BioAssay data set” (2004).
# Activity calls are given as the source filed them.
# How the values were obtained:
# [1] = Luminescence Cell-Based Dose Retest to Confirm Inhibitors of Cancer Stem Cells. [Related pubchem assays (depositor defined):AID2717, AID2721]; type: functional; settings: Homo sapiens
# [2] = viability of HCT116 lacking mutant beta-catenin – cell-based, human colon tumor, dose response (AID 1045); type: functional;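 also: HCT116 colon tumor cells with beta catenin knocked out; cells exposed to compound for 60 hours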
# [3] = biological target: Disintegrin and metalloproteinase domain-containing protein 17 (Homo sapiens, UniProt P78536); assay: inhibition of ADAM17 substrate cleavage – biochemical, quenched FRET substrate, counter-screen for ADAM10 exosite inhibitor project, dose response (AID 743253)
# Disintegrin and metalloproteinase domain-containing protein 17, sequence (P78536 whole entry, the tested form may be a part): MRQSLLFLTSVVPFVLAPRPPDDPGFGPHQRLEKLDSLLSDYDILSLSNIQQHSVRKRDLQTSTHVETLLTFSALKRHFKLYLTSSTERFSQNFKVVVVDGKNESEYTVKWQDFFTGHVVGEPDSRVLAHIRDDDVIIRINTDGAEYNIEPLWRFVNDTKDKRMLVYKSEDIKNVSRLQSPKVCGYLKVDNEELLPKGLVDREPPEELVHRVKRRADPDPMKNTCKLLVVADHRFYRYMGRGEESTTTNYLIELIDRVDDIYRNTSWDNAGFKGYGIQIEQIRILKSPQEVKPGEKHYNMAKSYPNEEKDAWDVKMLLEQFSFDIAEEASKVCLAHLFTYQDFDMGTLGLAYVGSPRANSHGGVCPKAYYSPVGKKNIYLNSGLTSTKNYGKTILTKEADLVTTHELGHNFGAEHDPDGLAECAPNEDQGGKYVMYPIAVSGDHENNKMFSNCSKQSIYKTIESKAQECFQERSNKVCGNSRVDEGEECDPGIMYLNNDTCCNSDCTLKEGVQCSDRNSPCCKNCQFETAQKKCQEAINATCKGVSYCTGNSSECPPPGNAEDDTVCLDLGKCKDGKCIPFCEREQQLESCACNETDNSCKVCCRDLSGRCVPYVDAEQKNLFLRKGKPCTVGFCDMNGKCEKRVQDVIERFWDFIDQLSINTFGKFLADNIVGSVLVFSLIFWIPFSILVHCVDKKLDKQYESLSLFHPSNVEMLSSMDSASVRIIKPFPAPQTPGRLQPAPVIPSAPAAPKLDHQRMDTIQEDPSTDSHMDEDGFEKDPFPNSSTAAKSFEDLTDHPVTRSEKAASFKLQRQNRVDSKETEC
# [4] = potency of ADAM10 substrate cleavage blockers – biochemical, QFRET, dose response (AID 743254);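 also: ADAM10 enzyme with the DM2 quenched FRET peptide as substrate; EDANS fluorescence gain as the protease cuts the substrate; inhibitor potency against ADAM10 proteolytic activity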
# [5] = viability of PTEN-deleted HCT116 cells – cell-based, HCT116 PTEN knockout, dose response (AID 1047); type: functional;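 also: HCT116 colon tumor cells with PTEN knocked out; cells exposed to compound for 60 hours before readout; potency for loss of cell viability measured by luminescence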
# [6] = biological target: Sphingosine 1-phosphate receptor 2 (Homo sapiens, UniProt O95136); assay: Dose Response Cell Based Assay for Agonists of the S1P2 Receptor. [Related pubchem assays: 729, 736, 843 ]; type: functional
# Sphingosine 1-phosphate receptor 2, sequence (O95136 whole entry): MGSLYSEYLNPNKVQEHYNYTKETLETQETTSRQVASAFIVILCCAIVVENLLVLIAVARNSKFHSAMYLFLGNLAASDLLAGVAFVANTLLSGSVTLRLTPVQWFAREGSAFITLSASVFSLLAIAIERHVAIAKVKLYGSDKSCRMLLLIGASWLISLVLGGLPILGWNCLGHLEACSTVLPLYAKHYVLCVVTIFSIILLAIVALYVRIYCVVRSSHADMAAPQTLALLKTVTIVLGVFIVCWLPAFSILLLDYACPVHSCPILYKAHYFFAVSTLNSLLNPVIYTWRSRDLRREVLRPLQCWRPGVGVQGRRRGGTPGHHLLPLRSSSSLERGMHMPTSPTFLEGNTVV
# [7] = biological target: T1, Sentrin-specific protease 7 (Homo sapiens, UniProt Q9BQF6); type: functional;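 also: Luminescence-based dose-response confirmation of ultra-high-throughput screening hits, measuring inhibition of SENP7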
# T1 sequence (Q9BQF6 whole entry): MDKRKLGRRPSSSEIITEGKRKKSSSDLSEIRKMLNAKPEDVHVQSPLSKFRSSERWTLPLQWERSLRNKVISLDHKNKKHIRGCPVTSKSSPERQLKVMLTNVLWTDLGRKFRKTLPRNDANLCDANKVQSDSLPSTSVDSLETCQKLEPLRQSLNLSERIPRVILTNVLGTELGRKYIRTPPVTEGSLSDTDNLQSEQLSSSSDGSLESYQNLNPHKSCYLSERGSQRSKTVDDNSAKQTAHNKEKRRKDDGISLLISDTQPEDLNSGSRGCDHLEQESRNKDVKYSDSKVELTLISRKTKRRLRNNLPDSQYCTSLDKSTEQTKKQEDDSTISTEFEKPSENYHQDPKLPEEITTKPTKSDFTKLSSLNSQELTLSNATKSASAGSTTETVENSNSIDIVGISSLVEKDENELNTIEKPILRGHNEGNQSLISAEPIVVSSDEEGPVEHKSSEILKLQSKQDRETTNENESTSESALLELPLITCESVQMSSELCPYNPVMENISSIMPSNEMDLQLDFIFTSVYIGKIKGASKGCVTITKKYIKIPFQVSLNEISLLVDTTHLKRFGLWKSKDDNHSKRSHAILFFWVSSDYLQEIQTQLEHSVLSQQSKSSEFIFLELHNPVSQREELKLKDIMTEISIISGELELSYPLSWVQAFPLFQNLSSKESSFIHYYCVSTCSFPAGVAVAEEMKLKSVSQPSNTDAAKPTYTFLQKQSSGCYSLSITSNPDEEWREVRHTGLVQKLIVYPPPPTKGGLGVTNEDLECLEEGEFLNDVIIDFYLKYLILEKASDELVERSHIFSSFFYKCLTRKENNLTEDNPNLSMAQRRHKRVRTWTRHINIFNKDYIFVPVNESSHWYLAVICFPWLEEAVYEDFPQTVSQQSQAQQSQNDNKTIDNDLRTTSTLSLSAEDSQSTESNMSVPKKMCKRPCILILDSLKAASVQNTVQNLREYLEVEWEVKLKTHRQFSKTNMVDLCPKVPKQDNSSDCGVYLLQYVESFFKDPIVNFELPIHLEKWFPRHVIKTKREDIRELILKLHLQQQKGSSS
# [8] = biological target: T2, Sentrin-specific protease 6 (Homo sapiens, UniProt Q9GZR1); type: functional;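 also: Luminescence-based dose-response confirmatory assay of SENP6 inhibition, following up an ultra-high-throughput screen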
# T2 sequence (Q9GZR1 whole entry): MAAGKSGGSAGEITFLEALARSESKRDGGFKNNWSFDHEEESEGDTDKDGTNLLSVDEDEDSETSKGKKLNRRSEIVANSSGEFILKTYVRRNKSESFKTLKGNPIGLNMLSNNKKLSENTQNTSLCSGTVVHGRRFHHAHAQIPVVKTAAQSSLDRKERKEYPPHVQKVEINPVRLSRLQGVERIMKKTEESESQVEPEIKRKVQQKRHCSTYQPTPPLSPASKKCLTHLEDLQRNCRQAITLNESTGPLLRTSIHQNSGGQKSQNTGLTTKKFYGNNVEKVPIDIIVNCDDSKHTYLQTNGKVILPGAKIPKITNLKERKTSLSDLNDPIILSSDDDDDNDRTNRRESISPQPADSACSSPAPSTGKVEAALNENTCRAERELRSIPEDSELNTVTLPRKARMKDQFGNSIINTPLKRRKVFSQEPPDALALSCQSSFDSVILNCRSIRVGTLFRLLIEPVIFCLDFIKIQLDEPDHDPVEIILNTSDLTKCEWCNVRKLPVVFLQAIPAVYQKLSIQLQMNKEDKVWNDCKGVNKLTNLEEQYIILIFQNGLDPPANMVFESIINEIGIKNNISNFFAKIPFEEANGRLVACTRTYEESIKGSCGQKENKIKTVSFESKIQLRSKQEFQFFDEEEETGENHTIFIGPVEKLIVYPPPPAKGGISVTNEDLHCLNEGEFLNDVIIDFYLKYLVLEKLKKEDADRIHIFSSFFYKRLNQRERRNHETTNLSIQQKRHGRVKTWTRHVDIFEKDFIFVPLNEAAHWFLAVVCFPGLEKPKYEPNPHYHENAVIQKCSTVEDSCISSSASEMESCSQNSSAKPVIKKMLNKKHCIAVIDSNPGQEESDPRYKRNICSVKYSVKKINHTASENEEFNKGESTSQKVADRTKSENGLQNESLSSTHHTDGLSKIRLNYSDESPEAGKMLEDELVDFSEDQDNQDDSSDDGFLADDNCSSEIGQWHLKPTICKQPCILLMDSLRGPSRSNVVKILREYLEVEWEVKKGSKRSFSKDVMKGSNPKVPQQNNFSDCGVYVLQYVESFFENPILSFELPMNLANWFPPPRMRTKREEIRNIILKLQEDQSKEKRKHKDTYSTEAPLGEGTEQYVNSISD
# Caspase-7 = Caspase-7 (Homo sapiens, UniProt P55210); assay: caspase-7 enzyme inhibition, selectivity check – biochemical, DEVD-R110 fluorescence, cherry-pick, selectivity assay for caspase-6 inhibitor project, dose response (AID 743295); type: functional
# Caspase-7, sequence (P55210 24-198 limits assumed): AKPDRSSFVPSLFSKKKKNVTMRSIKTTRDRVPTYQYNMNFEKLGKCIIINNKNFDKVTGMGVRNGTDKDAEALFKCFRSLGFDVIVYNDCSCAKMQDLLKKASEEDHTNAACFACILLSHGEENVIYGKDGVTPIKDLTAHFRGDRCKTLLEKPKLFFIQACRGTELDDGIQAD
# Caspase-7, sequence (P55210 207-303 limits assumed): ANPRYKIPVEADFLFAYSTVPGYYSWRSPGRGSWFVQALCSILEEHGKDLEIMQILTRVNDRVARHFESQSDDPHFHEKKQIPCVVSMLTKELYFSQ
# Caspase-3 = biological target: T3, Caspase-3 (Homo sapiens, UniProt P42574); type: functional;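 also: Dose-response selectivity test against caspase-3 for candidate inhibitors of sentrin-specific proteases (SENPs)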
# T3 sequence (P42574 whole entry): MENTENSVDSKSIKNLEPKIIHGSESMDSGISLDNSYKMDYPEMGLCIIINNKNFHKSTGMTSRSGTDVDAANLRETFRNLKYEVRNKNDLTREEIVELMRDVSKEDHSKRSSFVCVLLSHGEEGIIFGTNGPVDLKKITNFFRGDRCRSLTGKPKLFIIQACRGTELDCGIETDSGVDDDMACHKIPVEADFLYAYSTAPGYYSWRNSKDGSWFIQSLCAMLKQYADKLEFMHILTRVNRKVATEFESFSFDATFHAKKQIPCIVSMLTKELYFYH
# Caspase-9 = Caspase-9 (Homo sapiens, UniProt P55211); assay: inhibitors of purified CASP9 protease – biochemical, fluorescence, plate reader, cherry-picked samples, selectivity assay for caspase-6 inhibitor project, dose response (AID 743293)
# Caspase-9, sequence (P55211 1-315 limits assumed): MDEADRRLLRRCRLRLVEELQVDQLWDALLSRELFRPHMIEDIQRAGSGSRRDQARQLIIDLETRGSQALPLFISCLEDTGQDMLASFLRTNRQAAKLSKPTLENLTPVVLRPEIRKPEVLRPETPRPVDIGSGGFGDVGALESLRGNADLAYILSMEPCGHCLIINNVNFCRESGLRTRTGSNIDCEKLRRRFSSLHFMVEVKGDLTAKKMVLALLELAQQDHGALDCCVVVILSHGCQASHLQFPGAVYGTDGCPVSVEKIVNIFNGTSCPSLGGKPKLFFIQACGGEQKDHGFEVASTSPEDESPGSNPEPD
# Caspase-9, sequence (P55211 331-416 limits assumed): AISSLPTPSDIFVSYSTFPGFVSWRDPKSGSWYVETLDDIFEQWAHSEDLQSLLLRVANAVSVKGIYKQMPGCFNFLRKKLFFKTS
# [9] = biological target: T4, Sentrin-specific protease 8 (Homo sapiens, UniProt Q96LD8); type: functional;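 also: luminescence read-out of SENP8 inhibition, dose-response confirmation following an ultra-high-throughput screen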
# T4 sequence (Q96LD8 whole entry): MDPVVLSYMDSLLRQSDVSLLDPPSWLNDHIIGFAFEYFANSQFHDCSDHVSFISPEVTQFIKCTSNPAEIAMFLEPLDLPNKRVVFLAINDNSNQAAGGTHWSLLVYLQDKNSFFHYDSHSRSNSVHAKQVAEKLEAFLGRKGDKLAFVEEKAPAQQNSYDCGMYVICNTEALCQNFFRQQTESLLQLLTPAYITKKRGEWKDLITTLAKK
# [10] = biological target: T5, Mitochondrial peptide methionine sulfoxide reductase (Bos taurus, UniProt P54149); assay: Absorbance-based biochemical high throughput dose response assay for activators of Methionine sulfoxide reductase A (MsrA).; type: functional
# T5 sequence (P54149 whole entry): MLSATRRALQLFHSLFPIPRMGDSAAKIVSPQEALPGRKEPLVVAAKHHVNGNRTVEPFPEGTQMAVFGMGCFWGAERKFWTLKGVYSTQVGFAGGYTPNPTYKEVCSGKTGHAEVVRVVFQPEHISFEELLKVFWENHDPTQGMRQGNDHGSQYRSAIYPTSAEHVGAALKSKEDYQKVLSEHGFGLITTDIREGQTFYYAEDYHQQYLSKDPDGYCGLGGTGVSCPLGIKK
# Caspase-6 = biological target: T6, Caspase-6 (Homo sapiens, UniProt P55212); assay: inhibition of CASP6 peptide cleavage – biochemical, VEID-R110 fluorescence, cherry-pick, dose response (AID 720632)
# T6 sequence (P55212 whole entry): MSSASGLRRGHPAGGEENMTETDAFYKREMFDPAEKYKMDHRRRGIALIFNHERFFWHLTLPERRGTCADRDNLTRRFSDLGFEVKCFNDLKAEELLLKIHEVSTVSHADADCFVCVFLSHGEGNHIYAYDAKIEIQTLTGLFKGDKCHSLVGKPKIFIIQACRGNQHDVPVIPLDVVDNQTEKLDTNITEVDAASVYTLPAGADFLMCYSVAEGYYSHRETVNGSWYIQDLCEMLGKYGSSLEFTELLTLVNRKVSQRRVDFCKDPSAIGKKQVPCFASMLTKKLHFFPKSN
# Caspase-8 = Caspase-8 (Homo sapiens, UniProt Q14790); assay: inhibitors of purified CASP8 protease – biochemical, Z-IETD-R110 fluorescence, cherry-picked samples, selectivity assay for caspase-6 inhibitor project, dose response (AID 743294)
# Caspase-8, sequence (Q14790 217-374 limits assumed): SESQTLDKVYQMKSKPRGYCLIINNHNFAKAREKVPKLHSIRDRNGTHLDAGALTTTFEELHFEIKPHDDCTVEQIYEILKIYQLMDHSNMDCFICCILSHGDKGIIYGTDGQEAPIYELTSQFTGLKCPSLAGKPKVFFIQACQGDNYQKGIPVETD
# Caspase-8, sequence (Q14790 385-479 limits assumed): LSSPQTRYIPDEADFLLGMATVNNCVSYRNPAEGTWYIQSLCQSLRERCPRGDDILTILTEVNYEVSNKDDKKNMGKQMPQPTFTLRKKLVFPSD
# [11] = biological target: T7, Tyrosine-protein phosphatase non-receptor type 7 (Homo sapiens, UniProt P35236); assay: HePTP tyrosine phosphatase activity blockers – biochemical, absorbance, leukemia target, primary screen (AID 521); type: functional
# T7 sequence (P35236 whole entry): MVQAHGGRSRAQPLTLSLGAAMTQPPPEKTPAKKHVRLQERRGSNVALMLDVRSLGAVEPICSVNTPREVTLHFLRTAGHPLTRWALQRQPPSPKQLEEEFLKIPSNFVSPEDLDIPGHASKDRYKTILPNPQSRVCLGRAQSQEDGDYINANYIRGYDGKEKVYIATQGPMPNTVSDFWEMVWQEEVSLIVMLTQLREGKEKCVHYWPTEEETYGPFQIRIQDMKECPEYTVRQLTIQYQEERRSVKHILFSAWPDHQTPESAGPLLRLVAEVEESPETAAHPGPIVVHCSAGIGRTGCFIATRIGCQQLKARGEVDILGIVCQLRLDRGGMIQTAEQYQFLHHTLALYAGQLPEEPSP
# [12] = biological target: T8, Polyadenylate-binding protein 1 (Homo sapiens, UniProt P11940); assay: MLLE binding blockers, Cy5 peptide tracer – biochemical, fluorescence polarization, Cy5-PAM2 peptide, secondary, miRNA deadenylation inhibitor project, dose response (AID 602260); type: functional; settings: read-out: IC50_Mean
# T8 sequence (P11940 whole entry): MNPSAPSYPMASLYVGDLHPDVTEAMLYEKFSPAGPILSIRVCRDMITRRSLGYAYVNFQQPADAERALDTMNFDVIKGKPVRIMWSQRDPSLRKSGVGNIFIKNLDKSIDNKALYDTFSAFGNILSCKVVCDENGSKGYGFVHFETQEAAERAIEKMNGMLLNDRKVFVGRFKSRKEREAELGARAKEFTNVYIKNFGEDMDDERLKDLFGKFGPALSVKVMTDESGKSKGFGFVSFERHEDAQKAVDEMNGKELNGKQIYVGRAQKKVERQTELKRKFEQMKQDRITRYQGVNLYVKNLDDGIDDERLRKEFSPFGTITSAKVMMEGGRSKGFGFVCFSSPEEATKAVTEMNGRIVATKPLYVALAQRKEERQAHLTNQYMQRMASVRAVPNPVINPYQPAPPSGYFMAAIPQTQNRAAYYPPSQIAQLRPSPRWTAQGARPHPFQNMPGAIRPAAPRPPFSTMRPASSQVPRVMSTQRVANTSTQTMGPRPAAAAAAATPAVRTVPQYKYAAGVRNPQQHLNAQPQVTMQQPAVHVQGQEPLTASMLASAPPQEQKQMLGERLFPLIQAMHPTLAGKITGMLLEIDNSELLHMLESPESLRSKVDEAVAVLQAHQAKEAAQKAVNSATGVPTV
# [13] = biological target: Metabotropic glutamate receptor 7 (Homo sapiens, UniProt Q14831); assay: potentiation of glutamate EC20 at mGlu7 – cell-based, calcium mobilization, Galpha15, dose response (AID 743384); type: functional
# Metabotropic glutamate receptor 7, sequence (Q14831 whole entry, the tested form may be a part): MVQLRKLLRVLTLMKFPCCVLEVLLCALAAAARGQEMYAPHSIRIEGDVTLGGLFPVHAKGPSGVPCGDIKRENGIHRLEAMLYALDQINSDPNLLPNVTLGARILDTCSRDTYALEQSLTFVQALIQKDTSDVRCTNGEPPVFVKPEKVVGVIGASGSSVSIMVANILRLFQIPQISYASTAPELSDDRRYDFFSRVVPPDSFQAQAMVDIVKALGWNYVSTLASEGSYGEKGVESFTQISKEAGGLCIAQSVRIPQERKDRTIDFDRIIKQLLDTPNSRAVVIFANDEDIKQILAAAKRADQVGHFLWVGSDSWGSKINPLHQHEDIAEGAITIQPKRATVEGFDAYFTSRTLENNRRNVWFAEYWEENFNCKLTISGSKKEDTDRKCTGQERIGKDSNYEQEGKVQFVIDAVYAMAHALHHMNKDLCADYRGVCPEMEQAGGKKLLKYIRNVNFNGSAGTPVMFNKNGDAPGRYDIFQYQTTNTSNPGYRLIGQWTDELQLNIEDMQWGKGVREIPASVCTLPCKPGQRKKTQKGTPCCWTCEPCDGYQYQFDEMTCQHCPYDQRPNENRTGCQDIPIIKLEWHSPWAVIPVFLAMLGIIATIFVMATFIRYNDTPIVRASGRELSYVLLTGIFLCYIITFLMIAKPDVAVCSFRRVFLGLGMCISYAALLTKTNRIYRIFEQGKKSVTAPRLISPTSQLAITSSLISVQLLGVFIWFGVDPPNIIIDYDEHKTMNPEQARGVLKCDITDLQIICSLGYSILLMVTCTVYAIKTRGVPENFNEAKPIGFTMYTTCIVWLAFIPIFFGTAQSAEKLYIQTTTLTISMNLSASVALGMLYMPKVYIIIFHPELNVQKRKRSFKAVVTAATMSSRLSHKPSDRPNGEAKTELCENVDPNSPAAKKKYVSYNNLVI
# [14] = biological target: T8, Polyadenylate-binding protein 1; assay: MLLE domain peptide-binding blockers, IC50 – biochemical, fluorescence polarization, FITC-PAM2 peptide, dose response (AID 602259); type: functional; settings: read-out: IC50_Mean
compound,measurement,setting,value
COc1ccc(C(c2c[nH]c3ccccc23)c2c[nH]c3ccccc23)cc1O,AC50,[1],4.09 µM (active)
same,EC50,[2],558 µM (active)
same,IC50,[3],> 69.5 µM (inactive)
same,IC50,[4],> 69.5 µM (inactive)
same,EC50,[5],31 µM (active)
same,EC50,[6],> 50 µM (not active)
O=C(COC(=O)c1ccc([N+](=O)[O-])s1)Nc1ccccc1,IC50,[7],6.5 µM (active)
same,IC50,[8],4.39 µM (active)
same,AC50,Caspase-7,17.4 µM (active)
same,IC50,Caspase-3,8.76 µM (active)
same,AC50,Caspase-9,25.5 µM (active)
same,IC50,[9],4.04 µM (active)
same,EC50,[10],57.5 µM (inactive)
same,AC50,Caspase-6,2.49 µM (active)
same,AC50,Caspase-8,25.5 µM (active)
O=C(NCc1ccc(F)cc1)c1cc2ccccn2n1,IC50,[11],> 100 µM (not active)
CC(=O)Nc1ccc(SCC(=O)c2cc(C)n(-c3ccccc3F)c2C)cc1,IC50,[12],> 66 µM (inactive)
same,EC50,[13],2.4 µM (active)
same,IC50,[14],> 66 µM (inactive)
